In US20260224589A1 (priority 2023, published 2026):
Read-outs that look alike come from different tables or passages of the source.

Tested on: AsPC-1 cells
Assay: phospho-ERK HTRF assay in AsPC-1 cells, 4 h treatment
Type: cell-based
[1] = Homo sapiens, ASPC1, AsPC-1, 4h, Table 1b, read-out: PERK IC50 (AsPC-1, 4h)
[2] = Homo sapiens, ASPC1, AsPC-1, 4H, Table 1a class column, read-out: pERK IC50 activity range (*)
[3] = Homo sapiens, ASPC1, AsPC-1, 4H, Table 1a, read-out: PERK IC50 (AsPC-1, 4H)

| SMILES | IC50 [1] | IC50 [2] | IC50 [3] | also measured |
| --- | --- | --- | --- | --- |
| CN(C)C(=O)c1nn2c(c1Cl)CN(c1nc(OC[C@@]34CCCN3C/C(=C\F)C4)nc3c1CO[C@H](c1cc(N)cc(Cl)c1C1CC1)C3)CCC2 [compound 439] | < 10 nM | – | – | – |
| CN1CCOc2c(nn3c2CN(c2nc(OC[C@@]45CCCN4C[C@H](F)C5)nc4c2CO[C@@H](c2c(C(F)(F)F)ccc(N)c2F)C4)CCC3)C1=O [212b] | – | > 500 nM | > 10000 nM | – |
| Cc1c(C(=O)N(C)C)nn2c1CN(c1nc(OC[C@@]34CCCN3C/C(=C\F)C4)nc3c1CO[C@H](c1cc(N)cc(F)c1C(F)(F)F)C3)CCC2 [compound 417] | < 10 nM | – | – | – |
| CN(C)C(=O)c1nn2c(c1Cl)CN(c1nc(OC[C@@]34CCCN3C[C@H](F)C4)nc3c1CO[C@H](c1cc(N)cc(F)c1C(F)(F)F)C3)CCC2 [compound 402] | – | 10 to 30 nM | – | – |
| CCN(C)C(=O)c1nn2c(c1Cl)CN(c1nc(OC[C@@]34CCCN3C/C(=C\F)C4)nc3c1CO[C@H](c1c(F)c(N)cc(Cl)c1C(F)(F)F)C3)CCC2 [compound 432] | < 10 nM | – | – | – |
| Cc1c(C(=O)N2CCCC2)nn2c1CN(c1nc(OC[C@@]34CCCN3C/C(=C\F)C4)nc3c1CO[C@H](c1cc(N)cc(Cl)c1C(F)(F)F)C3)CCC2 [compound 421] | < 10 nM | – | – | – |
| Cc1cc(N)cc(C2Cc3nc(OC[C@@]45CCCN4C[C@H](F)C5)nc(N4CCCn5nc(C(=O)N(C)C)c(Cl)c5C4)c3CO2)c1C(F)(F)F (some centres unmarked) [compound 239] | – | 10 to 30 nM | 12.8 nM | – |
| CN(C)C(=O)c1nc2c(s1)CN(c1nc(OC[C@@]34CCCN3C[C@H](F)C4)nc3c1CO[C@H](c1c(C(F)(F)F)ccc(N)c1F)C3)CCC2 [compound 209] | – | 101 to 500 nM | 479 nM | – |
| CN(C)C(=O)c1nn2c(c1Cl)CN(c1nc(OC[C@@]34CCCN3C[C@H](F)C4)nc3c1COC(c1c(C(F)(F)F)ccc(Br)c1F)C3)CC1(COC1)C2 (some centres unmarked) [compound 218] | – | > 500 nM | > 10000 nM | – |
| CC#Cc1cc(N)cc([C@@H]2Cc3nc(OC[C@@]45CCCN4C[C@H](F)C5)nc(N4CCCn5nc(C(=O)N(C)C)c(C)c5C4)c3CO2)c1C(F)(F)F [compound 419] | < 10 nM | – | – | – |
| CON(C)C(=O)c1nn2c(c1Cl)CN(c1nc(OC[C@@]34CCCN3C/C(=C\F)C4)nc3c1CO[C@H](c1c(F)c(N)cc(Cl)c1C(F)(F)F)C3)CCC2 [compound 461] | < 10 nM | – | – | – |
| CC#Cc1cc(N)cc([C@@H]2Cc3nc(OC[C@@]45CCCN4C/C(=C\F)C5)nc(N4CCCn5nc(C(=O)N(C)C)c(CC)c5C4)c3CO2)c1C(F)(F)F [compound 424] | < 10 nM | – | – | – |
| CON(C)C(=O)c1nn2c(c1C)CN(c1nc(OC[C@@]34CCCN3C/C(=C\F)C4)nc3c1COC(c1cc(N)cc(Cl)c1C(F)(F)F)C3)CCC2 (stereo partly drawn) [compound 450, 5-(7-(5-amino-3-chloro-2-(trifluoromethyl)phenyl)-2-(((S,Z)-2-(fluoromethylene)tetrahydro-1H-pyrrolizin-7a(5H)-yl)methoxy)-7,8-dihydro-5H-pyrano[4,3-d]pyrimidin-4-yl)-N-methoxy-N,3-dimethyl-5,6,7,8-tetrahydro-4H-pyrazolo[1,5-a][1,4]diazepine-2-carboxamide] | – | 10 to 30 nM | – | – |
| Nc1ccc(C(F)(F)F)c(C2Cc3nc(OC[C@@]45CCCN4C[C@H](F)C5)nc(N4CCNCC(=O)C4)c3CO2)c1F (some centres unmarked) [compound 210] | – | – | – | IC50 (AsPC-1, 4H, Table 1a class column, read-out: pERK IC50 activity range (*)): > 500 nM; IC50 (AsPC-1, 4H, Table 1a, read-out: PERK IC50 (AsPC-1, 4H)): > 10000 nM |
| CN(C)C(=O)c1nn2c(c1F)CN(c1nc(OC[C@@]34CCCN3C/C(=C\F)C4)nc3c1CO[C@H](c1cc(N)cc(Cl)c1C(F)(F)F)C3)CCC2 [compound 412] | < 10 nM | – | – | – |
| CN(C)C(=O)c1nn2c(c1Cl)CN(c1nc(OC[C@@]34CCCN3CC(=C(F)F)C4)nc3c1CO[C@@H](c1c(F)c(N)cc(Cl)c1C(F)(F)F)C3)CCC2 [248b, 5-((R)-7-(3-amino-5-chloro-2-fluoro-6-(trifluoromethyl)phenyl)-2-(((S)-2-(difluoromethylene)tetrahydro-1H-pyrrolizin-7a(5H)-yl)methoxy)-7,8-dihydro-5H-pyrano[4,3-d]pyrimidin-4-yl)-3-chloro-N,N-dimethyl-5,6,7,8-tetrahydro-4H-pyrazolo[1,5-a][1,4]diazepine-2-carboxamide] | – | > 500 nM | > 2500 nM | – |
| Nc1ccc(C(F)(F)F)c(C2Cc3nc(OC[C@@]45CCCN4C[C@H](F)C5)nc(N4CCCC(=O)CC4)c3CO2)c1F (some centres unmarked) [compound 206] | – | > 500 nM | > 10000 nM | – |
| Cc1c(C(=O)N(C)C)nn2c1CN(c1nc(OC[C@@]34CCCN3CC(=C(F)F)C4)nc3c1CO[C@H](c1cc(N)cc(F)c1C(F)(F)F)C3)CCC2 [compound 407] | – | 10 to 30 nM | – | – |
| CON(C)C(=O)c1nn2c(c1Cl)CN(c1nc(OC[C@@]34CCCN3CC(=C(F)F)C4)nc3c1COC(c1c(F)c(N)cc(Cl)c1C(F)(F)F)C3)CCC2 (some centres unmarked) [compound 454] | – | 10 to 30 nM | – | – |
| CCN(C)C(=O)c1nn2c(c1Cl)CN(c1nc(OC[C@@]34CCCN3C[C@H](F)C4)nc3c1CO[C@H](c1c(F)c(N)cc(Cl)c1C(F)(F)F)C3)CCC2 [compound 433] | < 10 nM | – | – | – |

| SMILES | IC50 [1] | IC50 [2] | IC50 [3] | also measured |
| --- | --- | --- | --- | --- |
| Cc1cc(N)c(F)c([C@H]2Cc3nc(OC[C@@]45CCCN4C[C@H](F)C5)nc(N4CCCn5nc(C(=O)N(C)C)c(Cl)c5C4)c3CO2)c1C(F)(F)F [215b] | – | 101 to 500 nM | 132 nM | – |
| CON(C)C(=O)c1nn2c(c1Cl)CN(c1nc(OC[C@]34CCCN3C[C@@H](C=C(F)F)C4)nc3c1COC(c1cc(N)cc(Cl)c1C(F)(F)F)C3)CCC2 (some centres unmarked) [compound 451] | – | 10 to 30 nM | – | – |
| CCN(C)C(=O)c1cc2n(n1)CCCN(c1nc(OC[C@@]34CCCN3C/C(=C\F)C4)nc3c1CO[C@H](c1cc(N)cc(C)c1C(F)(F)F)C3)C2 [compound 413] | < 10 nM | – | – | – |
| Nc1ccc(C(F)(F)F)c(C2Cc3nc(OC[C@@]45CCCN4C[C@H](F)C5)nc(N4CCCn5nc(C(=O)N6CCOCC6)c(Cl)c5C4)c3CO2)c1F (some centres unmarked) [compound 227] | – | 31 to 100 nM | 97 nM | – |
| CC#Cc1cc(N)c(F)c([C@@H]2Cc3nc(OC[C@@]45CCCN4C[C@H](F)C5)nc(N4CCCn5nc(C(=O)N(C)C)c(C)c5C4)c3CO2)c1C(F)(F)F [compound 444] | < 10 nM | – | – | – |
| CN(C)C(=O)c1nn2c(c1Cl)CN(c1nc(OC[C@@]34CCCN3C[C@H](F)C4)nc3c1COC(c1cc(N)ccc1C(F)(F)F)C3)CCC2 (stereo in doubt) [230a, 5-((S)-7-(5-amino-2-(trifluoromethyl)phenyl)-2-(((2R,7aS)-2-fluorotetrahydro-1H-pyrrolizin-7a(5H)-yl)methoxy)-7,8-dihydro-5H-pyrano[4,3-d]pyrimidin-4-yl)-3-chloro-N,N-dimethyl-5,6,7,8-tetrahydro-4H-pyrazolo[1,5-a][1,4]diazepine-2-carboxamide] | – | > 500 nM | > 10000 nM | – |
| Cc1c(C(=O)N(C)C)nn2c1CN(c1nc(OC[C@@]34CCCN3C/C(=C\F)C4)nc3c1CO[C@H](c1c(F)c(N)cc(Cl)c1C(F)(F)F)C3)CCC2 [compound 440] | < 10 nM | – | – | – |
| Nc1ccc(C(F)(F)F)c([C@@H]2Cc3nc(OC[C@@]45CCCN4C[C@H](F)C5)nc(N4CCCS(=O)(=O)CC4)c3CO2)c1F [compound 204] | – | > 500 nM | > 10000 nM | – |
| CC#Cc1cc(N)c(F)c([C@@H]2Cc3nc(OC[C@@]45CCCN4C/C(=C\F)C5)nc(N4CCCn5nc(C(=O)N(C)C)c(Cl)c5C4)c3CO2)c1C(F)(F)F [compound 437] | < 10 nM | – | – | – |
| CON(C)C(=O)c1nn2c(c1Cl)CN(c1nc(OC[C@@]34CCCN3C/C(=C\F)C4)nc3c1COC(c1cc(N)cc(Cl)c1C(F)(F)F)C3)CCC2 (some centres unmarked) [compound 449] | < 10 nM | – | – | – |
| CN(C)C(=O)c1nn2c(c1Cl)CN(c1nc(OC[C@@]34CCCN3C[C@H](F)C4)nc3c1CO[C@@H](c1c(F)c(N)cc(Cl)c1C(F)(F)F)C3)CCC2 [213b] | – | 101 to 500 nM | 320 nM | – |
| CN(C)C(=O)c1cc2n(n1)CCCN(c1nc(OC[C@@]34CCCN3C/C(=C\F)C4)nc3c1CO[C@H](c1cc(N)cc(Cl)c1C(F)(F)F)C3)C2 [compound 301, 5-((S)-7-(5-amino-3-chloro-2-(trifluoromethyl)phenyl)-2-(((S,Z)-2-(fluoromethylene)tetrahydro-1H-pyrrolizin-7a(5H)-yl)methoxy)-7,8-dihydro-5H-pyrano[4,3-d]pyrimidin-4-yl)-N,N-dimethyl-5,6,7,8-tetrahydro-4H-pyrazolo[1,5-a][1,4]diazepine-2-carboxamide] | < 10 nM | – | – | – |
| CN(C)C(=O)c1nn2c(c1Cl)CN(c1nc(OC[C@@]34CCCN3C[C@H](F)C4)nc3c1COC(c1cc(N)cc(Cl)c1C(F)(F)F)C3)CCC2 (some centres unmarked) [compound 236] | < 10 nM | – | – | – |
| CN(C)C(=O)c1nn2c(c1Cl)CN(c1nc(OC[C@@]34CCCN3C/C(=C\F)C4)nc3c1CO[C@H](c1cc(N)ccc1C(F)(F)F)C3)CCC2 [compound 243] | – | 10 to 30 nM | 10.7 nM | – |
| Cc1c(C(=O)N(C)C)nn2c1CN(c1nc(OC[C@]34CCCN3C[C@@H](C=C(F)F)C4)nc3c1CO[C@H](c1cc(N)cc(Cl)c1C(F)(F)F)C3)CCC2 [compound 447] | < 10 nM | – | – | – |
| CN(C)C(=O)c1nn2c(c1Cl)CN(c1nc(OC[C@@]34CCCN3CC(=C(F)F)C4)nc3c1COC(c1cc(N)cc(Cl)c1C(F)(F)F)C3)CCC2 (some centres unmarked) [compound 245] | < 10 nM | – | – | – |
| COCCN(C)C(=O)c1nn2c(c1Cl)CN(c1nc(OC[C@@]34CCCN3C[C@H](F)C4)nc3c1COC(c1c(C(F)(F)F)ccc(N)c1F)C3)CCC2 (some centres unmarked) [compound 225] | – | 31 to 100 nM | 82 nM | – |
| CON(C)C(=O)c1nn2c(c1Cl)CN(c1nc(OC[C@@]34CCCN3C[C@H](F)C4)nc3c1COC(c1c(F)c(N)cc(C)c1C(F)(F)F)C3)CCC2 (stereo partly drawn) [compound 464, 5-(2-{[(2R,7aS)-2-fluoro-hexahydropyrrolizin-7a-yl]methoxy}-7-[3-amino-2-fluoro-5-methyl-6-(trifluoromethyl)phenyl]-5H,7H,8H-pyrano[4,3-d]pyrimidin-4-yl)-3-chloro-N-methoxy-N-methyl-4H,6H,7H,8H-pyrazolo[1,5-a][1,4]diazepine-2-carboxamide] | – | 10 to 30 nM | – | – |
| Cc1c(C(=O)N(C)C)nn2c1CN(c1nc(OC[C@@]34CCCN3C/C(=C\F)C4)nc3c1CO[C@H](c1c(F)c(N)cc(Cl)c1Cl)C3)CCC2 [compound 442] | < 10 nM | – | – | – |
